Experimental data: patent US6949574B2 (Bristol-Myers Squibb Company, priority 2002, dated 2005)
Where two headings read alike, the source gives them in different places.

Biological target: T1, human FAAH (Homo sapiens, UniProt O00519)
T1 construct: expressed in transfected cells; host or cells: H4 cells (H4-FAAH, Geneticin-selected); crude membrane homogenates
T1 sequence (O00519 1-579): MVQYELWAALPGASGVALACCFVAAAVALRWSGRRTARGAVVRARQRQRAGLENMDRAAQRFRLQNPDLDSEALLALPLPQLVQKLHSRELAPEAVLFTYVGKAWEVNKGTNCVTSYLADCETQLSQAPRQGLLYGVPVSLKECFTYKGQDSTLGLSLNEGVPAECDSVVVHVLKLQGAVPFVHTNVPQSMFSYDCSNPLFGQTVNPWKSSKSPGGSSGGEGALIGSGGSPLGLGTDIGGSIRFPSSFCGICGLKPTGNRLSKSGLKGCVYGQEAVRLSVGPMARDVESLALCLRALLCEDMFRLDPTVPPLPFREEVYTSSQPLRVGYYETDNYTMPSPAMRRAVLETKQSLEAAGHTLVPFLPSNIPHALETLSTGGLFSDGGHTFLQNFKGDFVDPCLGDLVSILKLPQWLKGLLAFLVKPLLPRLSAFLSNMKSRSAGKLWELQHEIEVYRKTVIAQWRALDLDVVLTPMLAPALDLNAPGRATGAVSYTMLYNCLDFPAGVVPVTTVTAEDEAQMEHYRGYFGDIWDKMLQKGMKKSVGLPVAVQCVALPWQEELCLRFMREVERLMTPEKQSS
Assay: FAAH activity in membrane homogenates of H4-FAAH cells, [3H]-anandamide hydrolysis
Format: biochemical
Description: Homogenates of crude membranes were prepared from H4 cells that express transfected human FAAH (H4-FAAH cells). Briefly, cells were grown in DMEM supplemented with 10% FBS and Geneticin at a final concentration of 500 μg/ml (Gibco BRL, Rockville, Md.). Confluent cultures of H4-FAAH cells were rinsed twice with phosphate-buffered saline [138 mM NaCl, 4.1 mM KCl, 5.1 mM Na2PO4, 1.5 mM KH2PO4 (pH 7.5), 37° C.] and incubated for 5 to 10 minutes at 4° C. in lysis buffer [1 mM sodium bicarbonate]. Cells were transferred from plates to polypropylene tubes (16×100 mm), homogenized and centrifuged at 32,000×g for 30 minutes. Pellets were resuspended by homogenization in lysis buffer and centrifuged at 32,000×g for 30 minutes. Pellets were resuspended in lysis buffer (15-20 μg protein/ml) then stored at −80° C. until needed. On the day of an experiment, membranes were diluted to 2.67 μg protein/ml in 125 mM Tris-Cl, pH 9.0.
Activity of FAAH was measured using a modification of the method described by Omeir et al., 1995 (Life Sci 56:1999, 1995). Membrane homogenates (240 ng protein) were incubated at room temperature for one hour with 1.67 nM anandamide [ethanolamine 1-^3H] (available from American Radiolabeled Chemical Inc., St Louis, Mo.) and 10 μM anandamide (available from Sigma/RBI, St. Louis, Mo.) in the absence and presence of inhibitors. The reaction was stopped by the addition of 1 volume of a solution of 1:1 methanol and dichloroethane. The mixture was shaken and then centrifuged at 1000×g for 15 minutes to separate the aqueous and organic phases. An aliquot of the aqueous phase, containing [^3H]-ethanolamine was withdrawn and counted by scintillation spectroscopy. Data were expressed as the percentage of [^3H]-ethanolamine formed versus vehicle, after subtraction of the background radioactivity determined in the presence of 10 μM arachidonyl trifluoromethyl ketone (ATFMK), an inhibitor of FAAH. IC50 values were determined using a four-parameter logistic equation for dose-response curves.

[1] = H4-FAAH cell membranes, 10 μM anandamide, room temperature, one hour, read-out: IC50

| Compound | IC50 [1] | IC50 |
| --- | --- | --- |
| CCCCOc1ccc(CNC(=O)ON=C(C)C)cc1 [Example 61, 2-Propanone, O-[[(4-butoxyphenylmethyl)amino]carbonyl]oxime] | > 500 nM | – |
| CCCCOc1ccc(CNC(=O)O/N=C/c2ccccc2)cc1 [Example 62, Benzaldehyde, O-[[(4-butoxyphenylmethyl)amino]carbonyl]oxime] | 10 to 100 nM | – |
| CCCCOc1ccc(CNC(=O)O/N=C/c2ccc(F)cc2)cc1 [Example 63, 4-Fluorobenzaldehyde, O-[[(4-butoxyphenylmethyl)amino]carbonyl]oxime] | 10 to 100 nM | – |
| CCCCOc1ccc(CNC(=O)O/N=C/c2cccnc2)cc1 [Example 64, 3-Pyridinecarboxaldehyde, O-[[(4-butoxyphenylmethyl)amino]carbonyl]oxime] | 10 to 100 nM | – |
| CCCCOc1cccc(NC(=O)O/N=C/c2cccnc2)c1 [Example 65, 3-Pyridinecarboxaldehyde, O-[[(3-butoxyphenyl)amino]carbonyl]oxime] | 10 to 100 nM | – |
| CCCCOc1cccc(NC(=O)ON=C(C)C)c1 [Example 66, 2-Propanone, O-[[(3-butoxyphenyl)amino]carbonyl]oxime] | – | > 500 nM |
| CCCCOc1cccc(NC(=O)O/N=C/c2ccccc2)c1 [Example 67, Benzaldehyde, O-[[(3-butoxyphenyl)amino]carbonyl]oxime] | 10 to 100 nM | – |
| CCCCOc1cccc(NC(=O)O/N=C/c2ccc(F)cc2)c1 [Example 68, 4-Fluorobenzaldehyde, O-[[(3-butoxyphenyl)amino]carbonyl]oxime] | 10 to 100 nM | – |
| O=C(Nc1ccc(-c2ccccc2)cc1)O/N=C/c1cccnc1 [Example 69, 3-Pyridinecarboxaldehyde, O-[[([1,1′-biphenyl]-4-yl)amino]carbonyl]oxime] | 10 to 100 nM | – |
| CCc1ccc(-c2ccc(NC(=O)O/N=C/c3cccnc3)cc2)cc1 [Example 70, 3-Pyridinecarboxaldehyde, O-[[(4′-ethyl-[1,1′-biphenyl]-4-yl)amino]carbonyl]oxime] | 10 to 100 nM | – |
| O=C(Nc1ccc(Oc2ccccc2)cc1)O/N=C/c1cccnc1 [Example 71, 3-Pyridinecarboxaldehyde, O-[[(4-phenoxyphenyl)amino]carbonyl]oxime] | < 10 nM | – |
| O=C(Nc1ccc(-c2ccccc2)cc1)O/N=C/c1ccccc1 [Example 72, Benzaldehyde, O-[[([1,1′-biphenyl]-4-yl)amino]carbonyl]oxime] | 10 to 100 nM | – |
| CCc1ccc(-c2ccc(NC(=O)O/N=C/c3ccccc3)cc2)cc1 [Example 74, Benzaldehyde, O-[[(4′-ethyl-[1,1′-biphenyl]-4-yl)amino]carbonyl]oxime] | < 10 nM | – |
| CCc1ccc(-c2ccc(NC(=O)O/N=C/c3ccc(F)cc3)cc2)cc1 [Example 75, 4-Fluorobenzaldehyde, O-[[(4′-ethyl-[1,1′-biphenyl]-4-yl)amino]carbonyl]oxime] | < 10 nM | – |
| O=C(Nc1ccc(Oc2ccccc2)cc1)O/N=C/c1ccccc1 [Example 76, Benzaldehyde, O-[[(4-phenoxyphenyl)amino]carbonyl]oxime] | < 10 nM | – |
| O=C(Nc1ccc(Oc2ccccc2)cc1)O/N=C/c1ccc(F)cc1 [Example 77, 4-Fluorobenzaldehyde, O-[[(4-phenoxyphenyl)amino]carbonyl]oxime] | < 10 nM | – |
| O=C(Nc1ccc(OCc2ccccc2)cc1)O/N=C/c1cccnc1 [Example 78, 3-Pyridinecarboxaldehyde, O-[[[4-(phenylmethoxy)phenyl]amino]carbonyl]oxime] | < 10 nM | – |
| O=C(Nc1ccc(OCCc2ccccc2)cc1)O/N=C/c1cccnc1 [Example 79, 3-Pyridinecarboxaldehyde, O-[[[4-(2-phenylethoxy)phenyl]amino]carbonyl]oxime] | < 10 nM | – |
| O=C(Nc1ccc(OCCCc2ccccc2)cc1)O/N=C/c1cccnc1 [Example 80, 3-Pyridinecarboxaldehyde, O-[[[4-(3-phenylpropoxy)phenyl]amino]carbonyl]oxime] | < 10 nM | – |
| O=C(Nc1ccc(OCc2ccccc2)cc1)O/N=C/c1ccc(F)cc1 [Example 81, 4-Fluorobenzaldehyde, O-[[[4-(phenylmethoxy)phenyl]amino]carbonyl]oxime] | < 10 nM | – |

| Compound | IC50 [1] | IC50 |
| --- | --- | --- |
| O=C(Nc1ccc(OCCc2ccccc2)cc1)O/N=C/c1ccc(F)cc1 [Example 82, 4-Fluorobenzaldehyde, O-[[[4-(2-phenylethoxy)phenyl]amino]carbonyl]oxime] | < 10 nM | – |
| O=C(Nc1ccc(OCCCc2ccccc2)cc1)O/N=C/c1ccc(F)cc1 [Example 83, 4-Fluorobenzaldehyde, O-[[[4-(3-phenylpropoxy)phenyl]amino]carbonyl]oxime] | < 10 nM | – |
| O=C(Nc1ccc(OCc2ccccc2)cc1)O/N=C/c1ccccc1 [Example 84, Benzaldehyde, O-[[[4-(phenylmethoxy)phenyl]amino]carbonyl]oxime] | < 10 nM | – |
| O=C(Nc1ccc(OCCc2ccccc2)cc1)O/N=C/c1ccccc1 [Example 85, Benzaldehyde, O-[[[4-(2-phenylethoxy)phenyl]amino]carbonyl]oxime] | < 10 nM | – |
| O=C(Nc1ccc(OCCCc2ccccc2)cc1)O/N=C/c1ccccc1 [Example 86, Benzaldehyde, O-[[[4-(3-phenylpropoxy)phenyl]amino]carbonyl]oxime] | < 10 nM | – |
| O=C(Nc1cccc(Oc2ccccc2)c1)O/N=C/c1cccnc1 [Example 87, 3-Pyridinecarboxaldehyde, O-[[(3-phenoxyphenyl)amino]carbonyl]oxime] | < 10 nM | – |
| O=C(Nc1cccc(Oc2ccccc2)c1)O/N=C/c1ccc(F)cc1 [Example 88, 4-Fluorobenzaldehyde, O-[[(3-phenoxyphenyl)amino]carbonyl]oxime] | < 10 nM | – |
| O=C(Nc1cccc(Oc2ccccc2)c1)O/N=C/c1ccccc1 [Example 91, Benzaldehyde, O-[[(3-phenoxyphenyl)amino]carbonyl]oxime] | < 10 nM | – |
| O=C(Nc1ccccc1Oc1ccccc1)O/N=C/c1cccnc1 [Example 92, 3-Pyridinecarboxaldehyde, O-[[(2-phenoxyphenyl)amino]carbonyl]oxime] | > 500 nM | – |
| CCCCCCOc1ccc(NC(=O)Oc2ccccc2)cc1 [Example 93, 4-Hexyloxyphenylcarbamic acid, phenyl ester] | 10 to 100 nM | – |
| CCCCCCOc1ccc(NC(=O)Oc2ccccc2F)cc1 [Example 94, 4-Hexyloxyphenylcarbamic acid, 2-fluorophenyl ester] | > 500 nM | – |
| CCCCOc1ccc(NC(=O)OC)cc1 [Example 95, 4-Butoxyphenylcarbamic acid, methyl ester] | > 500 nM | – |
| CCCCCCCOc1ccc(NC(=O)Oc2ccccc2)cc1 [Example 96, 4-Heptyloxyphenylcarbamic acid, phenyl ester] | < 10 nM | – |
| CCCCCCCOc1ccc(NC(=O)Oc2ccccc2F)cc1 [Example 97, 4-Heptyloxyphenylcarbamic acid, 2-fluorophenyl ester] | 10 to 100 nM | – |
| CCCCCCCCOc1ccc(NC(=O)Oc2ccccc2)cc1 [Example 98, 4-Octyloxyphenylcarbamic acid, phenyl ester] | < 10 nM | – |
| CCCCCCCCOc1ccc(NC(=O)Oc2ccccc2F)cc1 [Example 99, 4-Octyloxyphenylcarbamic acid, 2-fluorophenyl ester] | 10 to 100 nM | – |
| CCCCOc1ccc(NC(=O)Oc2ccc(Cl)cc2)cc1 [Example 100] | 10 to 100 nM | – |
| CCCCCCCCCCOc1ccc(NC(=O)Oc2ccccc2)cc1 [Example 101, 4-Decyloxyphenylcarbamic acid, phenyl ester] | – | < 10 nM |
| CCCCCCCCCCOc1ccc(NC(=O)Oc2ccccc2F)cc1 [Example 102, 4-Decyloxyphenylcarbamic acid, 2-fluorophenyl ester] | < 10 nM | – |
| CCCCCCCCCCCOc1ccc(NC(=O)Oc2ccccc2)cc1 [Example 103, 4-Undecyloxyphenylcarbamic acid, phenyl ester] | – | < 10 nM |
